This assay deals with PHL (Photorhabdus asymbiotica, UniProt C7BLE4). The assay is described as follows: Isothermal titration calorimetry of PHL with ligands. The following applies: for Kd / −TΔS / −ΔG / −ΔH / n (stoichiometry): ITC at 25 °C; for n (stoichiometry): two independent measurements; for Potency L-Fuc: KD L-fucose / KD ligand; for β L-Fuc (affinity improvement factor): KD,basic unit/(valency × KD,ligand), basic unit L-Fuc; for β Azide1 (affinity improvement factor): basic unit azide 1. It counts as binding. The text has this:
The binding of PHL to different α-L-fucoside compounds was further characterized by isothermal titration calorimetry (ITC), enabling determination of the complete thermodynamic profile of the molecular interactions (Table 3, Fig. 4). […] Because of this, it was not possible to evaluate the data, despite the obvious interaction. The dendrimers also cross-linked/aggregated the protein as with calixarenes, however the curves provided clear outcomes with an affinity in the low micromolar range. The dissociation constants (KD) of all dendrimers correlate with their valency – the higher number of fucose, the more decreased KD. […] The stoichiometry value n corresponds to the number of terminal fucoses per ligand molecule. The n value decreases from 4 to 1 as the number of fucose units increases from 1 to 12 (Table 3).
PHL protein in buffer A was equilibrated at room temperature at least for 30 min before ITC measurement. All ITC experiments were performed using ITC200 calorimeter (Malvern Panalytical, UK) at 25 °C. Carbohydrate ligands dissolved in buffer A were used at different concentrations. Protein in the calorimeter cell (50 μM) was titrated by consecutive additions (2 μl) of the ligand (1.5–5 mM) in the syringe while stirring at 1000 rpm. Integrated heat effects were analysed by nonlinear regression using a single-site binding model and global fitting in Origin 7 software (Microcal Instruments)[37]. The thermodynamic parameters of synthesised inhibitors were determined from two independent measurements.
In general terms: Isothermal titration calorimetry measures the heat released or taken up as one component is titrated into another.

Experimental findings from article PMC6797808, “Fucosylated inhibitors of recently identified bangle lectin from Photorhabdus asymbiotica” (Scientific Reports, 2019) are described below.

PHL, sequence (C7BLE4 entry or part of it): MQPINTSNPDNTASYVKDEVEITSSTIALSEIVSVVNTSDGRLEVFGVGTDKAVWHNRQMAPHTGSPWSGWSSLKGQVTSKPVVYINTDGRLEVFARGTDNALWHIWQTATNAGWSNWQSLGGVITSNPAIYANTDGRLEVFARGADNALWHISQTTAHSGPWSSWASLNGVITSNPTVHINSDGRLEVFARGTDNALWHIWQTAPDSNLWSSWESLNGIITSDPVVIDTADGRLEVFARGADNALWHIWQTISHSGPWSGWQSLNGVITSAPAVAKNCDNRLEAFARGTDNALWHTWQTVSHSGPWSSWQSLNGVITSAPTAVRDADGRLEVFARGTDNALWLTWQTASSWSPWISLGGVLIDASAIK

With `C[C@@H]1O[C@@H](CCN=[N+]=[N-])[C@@H](O)[C@H](O)[C@@H]1O` [Azide 1], the affinity, expressed as Kd, was 105 ± 9 µM; the “−TΔS” value is on record as 20.2 ± 4.4 kJ/mol; the “−ΔG” value was found to be 22.7 ± 2.0 kJ/mol; the “−ΔH” value stood at 42.9 ± 3.9 kJ/mol. The “n (stoichiometry)” value was determined as 4.1 ± 0.3. For the same compound, for the setting “ITC”, the “Potency L-Fuc” value was 13, the “β L-Fuc (affinity improvement factor)” value was 13 and the “β Azide1 (affinity improvement factor)” value turned out to be 1.

In the case of `C[C@@H]1O[C@@H](CCn2cc(COCC(COCc3cn(CC[C@@H]4O[C@@H](C)[C@@H](O)[C@@H](O)[C@@H]4O)nn3)(COCc3cn(CC[C@@H]4O[C@@H](C)[C@@H](O)[C@@H](O)[C@@H]4O)nn3)COCc3cn(CC[C@@H]4O[C@@H](C)[C@@H](O)[C@@H](O)[C@@H]4O)nn3)nn2)[C@@H](O)[C@H](O)[C@@H]1O` [Dendrimer 8], the Kd was determined as 36.9 ± 3.7 µM, the “−TΔS” value is recorded as 28.6 ± 3.2 kJ/mol, the “−ΔG” value is reported as 25.3 ± 2.5 kJ/mol and the “−ΔH” value was found to be 53.8 ± 1.9 kJ/mol. Besides, the “n (stoichiometry)” value is reported as 3.0 ± 0.1. Further, under “ITC”, the “Potency L-Fuc” value turned out to be 38, the “β L-Fuc (affinity improvement factor)” value came to 9 and the “β Azide1 (affinity improvement factor)” value was determined as 1. Besides, the PotencyAzide1 (ITC, relative to azide 1) amounted to 3.

In general, Kd refers to a measure of binding affinity in units of concentration. A lower Kd goes with higher affinity.
